The text below walks through data of patent EP0056144A1, “Carboxylic acid derivatives, their preparation and use as pharmaceuticals” (Dr. Karl Thomae GmbH, priority 1981, dated 1982).

Each structure is given as a SMILES string.

For one data set, the system named is weiblichen Ratten. The data set is described as follows: Blood-sugar-lowering effect in fasted female rats (glucose by hexokinase method). It counts as in vivo. Details: key: n.s.: statistisch nicht signifikant. To be noted: rats fasted 24 h. The text has this: Die blutzuckersenkende Wirkung der zu untersuchenden Substanzen wurde an weiblichen Ratten eigener Zucht mit dem Gewicht von 180-220 g geprüft, welche 24 Stunden vor Versuchsbeginn nüchtern gesetzt wurden. Die zu untersuchenden Substanzen wurden unmittelbar vor Versuchsbeginn in 1,5%- iger Methylcellulose suspendiert und per Schlundsonde appliziert.
Die Blutentnahme erfolgte unmittelbar vor Substanzapplikation, sowie 1, 2, 3 und 4 Stunden danach jeweils aus dem retroorbitalen Venenplexus. Hiervon wurden jeweils 50 Fl mit 0,5 ml 0,33 N Perchlorsäure enteiweißt und zentrifugiert. Im überstand wurde Glukose nach der Hexokinase-Methode mit Hilfe eines Analysenphotometers bestimmt. Die statistische Auswertung erfolgte nach dem t-Test nach Student mit p = 0,05 als Signifikanzgrenze.
Die nachfolgende Tabelle enthält die gefundenen Werte in Prozent gegenüber Kontrolle: […]

Data set [1] concerns weiblichen und männlichen Mäusen. Briefly: Acute toxicity in mice after a single oral dose. It counts as in vivo. To be noted: observation at least 7 days; for Tieren gestorben: single oral dose of 1 000 mg/kg; for orientierende Toxizität: single oral dose. The source says: Bei weiblichen und männlichen Mäusen eigener Zucht mit dem Gewicht von 20-26 g wurde die toxische Wirkung der Substanzen nach oraler Gabe (Suspension in 1%iger Methylcellulose) einer einmaligen Dosis bei einer Nachbeobachtungszeit von mindestens 7 Tagen geprüft. Die nachfolgende Tabelle enthält die gefundenen Werte: […]

Setting [2] is: 5 mg/kg by gavage, 1 hour after administration.
[3] abbreviates: 5 mg/kg by gavage, 2 hours after administration.
The mark [4] stands for this setting: 5 mg/kg by gavage, 3 hours after administration.
[5] abbreviates: 5 mg/kg by gavage, 4 hours after administration.

`O=C(O)c1ccc(CCNC(=O)c2cc(Cl)ccc2N2CCC3CCCC2C3)cc1` (stereo not drawn) [Substanz A, 4-[2-[2-(2-Azabicyclo[3.3.1]nonan-2-yl)-5-chlor-benzoyl-amino]-äthyl]benzoesäure]: the “Blutzuckersenkende Wirkung, Werte in Prozent gegenüber Kontrolle” value (“Blutzuckersenkende Wirkung, Werte” below) in the data set on weiblichen Ratten (setting [2]) is -42 Prozent; with weiblichen Ratten (setting [3]) it was -43 Prozent; in the data set with weiblichen Ratten (setting [4]), -36 Prozent; in the data set with weiblichen Ratten (setting [5]), -32 Prozent.

Regarding `O=C(O)c1ccc(CCNC(=O)c2cc(F)ccc2N2CCCCCCCC2)cc1` [Substanz B, 4-[2-[5-Fluor-2-(octahydro-1H-azonino)-benzoylamino]äthyl]-benzoesäure], the “Blutzuckersenkende Wirkung, Werte” value in the data set on weiblichen Ratten (setting [2]) was -31 Prozent; in the data set on weiblichen Ratten (setting [3]), -36 Prozent; with weiblichen Ratten (setting [4]), -34 Prozent; in the data set on weiblichen Ratten (setting [5]), -34 Prozent.

As for `C[C@@H]1C[C@H](C)CN(c2ncc(Cl)cc2C(=O)NCCc2ccc(C(=O)O)cc2)C1` [Substanz C], the “Blutzuckersenkende Wirkung, Werte” value in the data set with weiblichen Ratten (setting [2]) is reported as -37 Prozent; in the data set with weiblichen Ratten (setting [3]) it was -39 Prozent; in the data set on weiblichen Ratten (setting [4]), -40 Prozent; in the data set with weiblichen Ratten (setting [5]), -38 Prozent. This molecule also yielded a Tieren gestorben in data set [1] of 0 von 10. The “orientierende Toxizität” value in data set [1] is on record as > 1 000 mg/kg.

Turning to `Cc1ccc(N2CCCCCCCC2)c(C(=O)NCCc2ccc(C(=O)O)cc2)c1` [Substanz D, 4-[2-[5-Methyl-2-(octahydro-1H-azonino)-benzoylamino]-äthyl]-benzoesäure], the “Blutzuckersenkende Wirkung, Werte” value with weiblichen Ratten (setting [2]) is -30 Prozent; in the data set on weiblichen Ratten (setting [3]), -34 Prozent; in the data set with weiblichen Ratten (setting [4]), -35 Prozent; in the data set with weiblichen Ratten (setting [5]), -26 Prozent.

Take `CCNc1ccc(Cl)cc1C(=O)NCCc1ccc(C(=O)O)cc1` [Substanz E, 4-[2-(2-Äthylamino-5-chlor-benzoylamino)-äthyl]benzoesäure, reference compound]: the “Blutzuckersenkende Wirkung, Werte” value with weiblichen Ratten (25 mg/kg by gavage, 1 hour after administration) was “n.s”; in the data set on weiblichen Ratten (25 mg/kg by gavage, 2 hours after administration) it was “n.s”; in the data set with weiblichen Ratten (25 mg/kg by gavage, 3 hours after administration), “n.s”; in the data set with weiblichen Ratten (25 mg/kg by gavage, 4 hours after administration), “n.s”.

Take `CCC(CC)C1CCN(c2ccc(Cl)cc2C(=O)O)CC1` [Substanz F, 5-Chlor-2-[4-(3-pentyl)-piperidino]benzoesäure]: in data set [1], the Tieren gestorben is 0 von 10 and the “orientierende Toxizität” value is reported as > 1 000 mg/kg.
